Test results reported in publication PMC10129394, “PK1 from Drosophila obscurin is an inactive pseudokinase with scaffolding properties” (Open Biology, 2023).

Columns and labels:
dmObsc-PK1 [1] = molecular target: T1, dmObsc-PK1 (Drosophila melanogaster, UniProt A8DYP0); assay: X-ray crystallography, […] Å; settings: co-crystallized with 3 mM ATP and 1 mM MgCl2, ADP found in density; no cation observed; pH 9.5; ATP-binding pocket
T1 construct: gene Obsc; pseudokinase domain PK1 plus 40 C-terminal residues (3186-3480); N-terminal His6-3C tag (pOPINF), cleaved with 3C protease; E. coli Rosetta

dmObsc-PK1 [2] = molecular target: T1, dmObsc-PK1; assay: isothermal titration calorimetry; format: binding

T1 sequence (A8DYP0 3186-3480): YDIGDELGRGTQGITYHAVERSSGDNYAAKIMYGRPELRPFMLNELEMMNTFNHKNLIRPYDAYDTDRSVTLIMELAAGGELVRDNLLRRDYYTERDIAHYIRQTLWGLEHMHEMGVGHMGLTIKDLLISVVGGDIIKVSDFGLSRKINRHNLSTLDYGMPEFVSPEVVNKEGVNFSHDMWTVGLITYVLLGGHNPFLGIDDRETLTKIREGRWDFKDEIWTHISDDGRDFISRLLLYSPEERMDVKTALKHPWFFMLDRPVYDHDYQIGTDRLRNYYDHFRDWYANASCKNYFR

Kd (dmObsc-PK1 [2]) [µM] | SMILES | X-ray crystallography, 1.90 Å (dmObsc-PK1 [1])
– | Nc1ncnc2c1ncn2[C@@H]1O[C@H](COP(=O)(O)OP(=O)(O)O)[C@@H](O)[C@H]1O [ADP] | electron density maps revealed ADP bound to the kinase
61.8 ± 4.2 | Nc1ncnc2c1ncn2[C@@H]1O[C@H](COP(=O)(O)OP(=O)(O)OP(=O)(O)O)[C@@H](O)[C@H]1O [ATP] | –
